In brackets after ≈: the same amount, converted by molar mass.
Biological target: KRAS (G12C)::SOS1 protein-protein interaction (Homo sapiens (Human), UniProt P01116, C118S/C51S/C80L/G12C)
Assay: KRAS::SOS1 AlphaScreen binding assay (KRAS G12C)
Details: GDP
From the text: This assay can be used to examine the potency with which compounds according to the invention binding to (mutated) KRAS inhibit the protein-protein interaction between SOS1 and (mutated) KRAS e.g. KRAS G12C, KRAS G12D. […] Low IC50 values in this assay setting are indicative of strong inhibition of protein-protein interaction between SOS1 and KRAS:
These assays measure the inhibitory effect of compounds on KRAS mutant protein-protein interactions using the Alpha Screen technology by Perkin Elmer.
The following (mutant) enzyme forms of KRAS and interacting proteins are used in these assays at the given concentrations:
KRAS (G12C) 1-169, N-terminal 6His-tag for purification, cleaved off, C-terminal avi-tag, biotinylated, mutations: C51S, C80L, C118S (in house); final assay concentration 7.5 nM and SOS1 564-1049, N-terminal 229 GST-tag, TEV cleavage site (Viva Biotech Ltd); final assay concentration 5 nM;
Test compounds dissolved in DMSO are dispensed onto assay plates (Proxiplate 384 PLUS, white, PerkinElmer; 6008289) using an Access Labcyte Workstation with the Labcyte Echo 55x. For the chosen highest assay concentration of 100 μM, 150 nL of compound solution are transferred from a 10 mM DMSO compound stock solution. A series of eleven fivefold dilutions per compound are transferred to the assay plate, compound dilutions are tested in duplicates. DMSO are added as backfill to a total volume of 150 nL.
The assays run on a fully automated robotic system in a darkened room below 100 Lux. To 150 nl of compound dilution 10 μl of a mix including KRAS mutant protein, SOS1 (final assay concentrations see above) and GDP nucleotide (Sigma G7127; final assay concentration 10 μM) in assay buffer (1×PBS, 0.1% BSA, 0.05% Tween 20) are added into columns 1-24.
After 30 minutes incubation time 5 μl of Alpha Screen bead mix in assay buffer are added into columns 1-23. Bead mix consists of AlphaLISA Glutathione Acceptor Beads (PerkinElmer, Cat No AL109) and AlphaScreen Streptavidin Donor Beads (PerkinElmer Cat No 6760002) in assay buffer at a final assay concentration of 10 μg/mL each.
Plates are kept at room temperature in a darkened incubator. After an additional 60 minutes incubation time the signal is measured in a PerkinElmer Envision HTS Multilabel Reader using the AlphaScreen specs from PerkinElmer.
Each plate contains up to 16 wells of a negative control depending on the dilution procedure (platewise or serial) (DMSO instead of test compound; with KRAS mutant::SOS1 GOP mix and bead mix; column 23) and 16 wells of a positive control (DMSO instead of test compound; with KRAS mutant::SOS1 GOP mix w/o bead mix; column 24).
As internal control known inhibitors of KRAS mutant::SOS1 interaction can be measured on each compound plate.
IC50 values are calculated and analyzed with Boehringer Ingelheim's MEGALAB C50 application using a 4 parametric logistic model.
Tables of example compounds disclosed herein contain IC50 values determined using the above assays (see Table 43).

Chain of KRAS (G12C)::SOS1 protein-protein interaction (P01116 other isoform, or with tags, fused parts or gaps G12C/C51S/C80L/C118S): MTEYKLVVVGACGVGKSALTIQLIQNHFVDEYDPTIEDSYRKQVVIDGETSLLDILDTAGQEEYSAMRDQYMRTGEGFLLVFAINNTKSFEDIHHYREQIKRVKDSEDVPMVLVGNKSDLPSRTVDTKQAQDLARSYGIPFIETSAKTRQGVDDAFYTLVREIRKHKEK

SMILES | IC50
C[C@H](Oc1nc(-c2noc3c2CCC[C@@]32CCCc3sc(N)c(C#N)c32)nc2c1CN(c1ncccn1)[C@]21CCOC1)[C@@H]1CCCN1C [II-7a] | 2 nM
CCn1c(=O)n([C@@H]2CCCOC2)c2nc(-c3onc4c3CCC[C@@]43CCCc4sc(N)c(C#N)c43)nc(OC[C@@]34CCCN3C[C@H](F)C4)c21 [I-33] | 22 nM
C[C@H](Oc1nc(-c2onc3c2CCC[C@@]32CCCc3sc(N)c(C#N)c32)nc2c1n(C)c(=O)n2[C@@H]1CCOC1)[C@@H]1CCCN1C [I-20] | 1 nM
Cc1cn([C@@H]2CCOC2)c2nc(-c3onc4c3CCC[C@@]43CCCc4sc(N)c(C#N)c43)nc(O[C@@H](C)[C@@H]3CCCN3C)c12 [I-41] | 4 nM
C[C@H](Oc1nc(-c2onc3c2CCC[C@@]32CCCc3sc(N)c(C#N)c32)nc2c1[nH]c(=O)n2[C@@H]1CCCOC1)[C@@H]1CCCN1C [I-13] | 2 nM

Tested on: MKN1 cells
Assay: MKN1 CTG proliferation assay (120 h) (gastric cancer, wt amplified)
Assay type: cell-based
Details: Homo sapiens, MKN-1
Procedure: MKN1 cells (JCRB0252) are dispensed into black 384-well plates, flat and clear bottom (Greiner, PNr. 781091) at a density of 200 cells per well in 60 μl RPMI-1640 ATCC-Formulation (Gibco #A10491)+10% FCS (fetal calf serum, HyClone, SH30084.03). Cells are incubated overnight at 37° C. in a humidified tissue culture incubator at 5% CO2. Compounds (10 mM stock in DMSO) are added at logarithmic dose series using the ECHO acoustic liquid handler system (Beckman Coulter), normalizing for added DMSO and including DMSO controls. All compound treatments are performed in technical duplicates. For the TO time point measurement, untreated cells are analyzed at the time of compound addition. Plates are incubated for 120 h, and cell viability is measured using CellTiter-Glo luminescent cell viability reagent (Promega product code G7570). Viability (stated as percent of control) is defined as relative luminescence units RLU of each well divided by the RLU of cells in DMSO controls. IC50 values are determined from viability measurements by non-linear regression using a four-parameter model.
IC50 values of representative compounds according to the invention measured with these assays in the indicated cell lines are presented in Table 46.

SMILES | IC50
C[C@H](Oc1nc(-c2noc3c2CCC[C@@]32CCCc3sc(N)c(C#N)c32)nc2c1CN(c1ncccn1)[C@]21CCOC1)[C@@H]1CCCN1C [II-7a] | 41 nM
CCn1c(=O)n([C@@H]2CCCOC2)c2nc(-c3onc4c3CCC[C@@]43CCCc4sc(N)c(C#N)c43)nc(OC[C@@]34CCCN3C[C@H](F)C4)c21 [I-33] | 4150 nM
C[C@H](Oc1nc(-c2onc3c2CCC[C@@]32CCCc3sc(N)c(C#N)c32)nc2c1n(C)c(=O)n2[C@@H]1CCOC1)[C@@H]1CCCN1C [I-20] | 8 nM
Cc1cn([C@@H]2CCOC2)c2nc(-c3onc4c3CCC[C@@]43CCCc4sc(N)c(C#N)c43)nc(O[C@@H](C)[C@@H]3CCCN3C)c12 [I-41] | 696 nM
C[C@H](Oc1nc(-c2onc3c2CCC[C@@]32CCCc3sc(N)c(C#N)c32)nc2c1[nH]c(=O)n2[C@@H]1CCCOC1)[C@@H]1CCCN1C [I-13] | 11 nM

Biological target: KRAS (G12D)::SOS1 protein-protein interaction (Homo sapiens (Human), UniProt P01116, G12D)
Sequence (P01116 other isoform, or with tags, fused parts or gaps G12D): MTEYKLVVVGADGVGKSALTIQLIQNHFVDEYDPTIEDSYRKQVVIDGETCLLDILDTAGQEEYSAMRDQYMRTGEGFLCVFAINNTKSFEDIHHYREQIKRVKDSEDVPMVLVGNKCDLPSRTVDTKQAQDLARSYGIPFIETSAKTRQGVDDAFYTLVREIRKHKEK
Assay: KRAS::SOS1 AlphaScreen binding assay (KRAS G12D)
Details: GDP
Procedure, shortened: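 AlphaScreen assay with KRAS G12D (1-169, 6His/avi-tagged, 10 nM), GST-SOS1 564-1049 (5 nM) and GDP (10 μM) in PBS, 0.1% BSA, 0.05% Tween 20; compound up to 100 μM top concentration, eleven fivefold dilutions in duplicate. After 30 min, glutathione acceptor and streptavidin donor beads (10 μg/mL each) were added and signal read after a further 60 min at room temperature in the dark; IC50 from 4-parameter logistic fit.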

SMILES | IC50
C[C@H](Oc1nc(-c2noc3c2CCC[C@@]32CCCc3sc(N)c(C#N)c32)nc2c1CN(c1ncccn1)[C@]21CCOC1)[C@@H]1CCCN1C [II-7a] | 2 nM
CCn1c(=O)n([C@@H]2CCCOC2)c2nc(-c3onc4c3CCC[C@@]43CCCc4sc(N)c(C#N)c43)nc(OC[C@@]34CCCN3C[C@H](F)C4)c21 [I-33] | 126 nM
C[C@H](Oc1nc(-c2onc3c2CCC[C@@]32CCCc3sc(N)c(C#N)c32)nc2c1n(C)c(=O)n2[C@@H]1CCOC1)[C@@H]1CCCN1C [I-20] | 1 nM
Cc1cn([C@@H]2CCOC2)c2nc(-c3onc4c3CCC[C@@]43CCCc4sc(N)c(C#N)c43)nc(O[C@@H](C)[C@@H]3CCCN3C)c12 [I-41] | 3 nM
C[C@H](Oc1nc(-c2onc3c2CCC[C@@]32CCCc3sc(N)c(C#N)c32)nc2c1[nH]c(=O)n2[C@@H]1CCCOC1)[C@@H]1CCCN1C [I-13] | 2 nM

Tested on: not listed separately
Assay: Solubility measurement (DMSO solution precipitation method)
Assay type: physicochemical
Details: aqueous buffer, kinetic from dmso stock, McIlvaine buffer pH 4.5, 24 h, read-out: solubility pH 4.5
Procedure, shortened: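 A 10 mM DMSO stock was diluted to 250 μM final in McIlvaine buffer at pH 4.5 or 6.8, then shaken 24 h at ambient temperature. After filtering off precipitate, filtrate concentration was quantified by LC-UV against a fully dissolved reference in acetonitrile/water (1:1).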

SMILES | solubility at 24 h
C[C@H](Oc1nc(-c2noc3c2CCC[C@@]32CCCc3sc(N)c(C#N)c32)nc2c1CN(c1ncccn1)[C@]21CCOC1)[C@@H]1CCCN1C [II-7a] | 65 µg/mL (≈ 97.6 µM)
CCn1c(=O)n([C@@H]2CCCOC2)c2nc(-c3onc4c3CCC[C@@]43CCCc4sc(N)c(C#N)c43)nc(OC[C@@]34CCCN3C[C@H](F)C4)c21 [I-33] | > 163 µg/mL
C[C@H](Oc1nc(-c2onc3c2CCC[C@@]32CCCc3sc(N)c(C#N)c32)nc2c1n(C)c(=O)n2[C@@H]1CCOC1)[C@@H]1CCCN1C [I-20] | > 151 µg/mL
Cc1cn([C@@H]2CCOC2)c2nc(-c3onc4c3CCC[C@@]43CCCc4sc(N)c(C#N)c43)nc(O[C@@H](C)[C@@H]3CCCN3C)c12 [I-41] | > 137 µg/mL
C[C@H](Oc1nc(-c2onc3c2CCC[C@@]32CCCc3sc(N)c(C#N)c32)nc2c1[nH]c(=O)n2[C@@H]1CCCOC1)[C@@H]1CCCN1C [I-13] | > 148 µg/mL

Same assay, conditions: aqueous buffer, kinetic from dmso stock, McIlvaine buffer pH 6.8, 24 h, read-out: solubility pH 6.8

SMILES | solubility at 24 h
C[C@H](Oc1nc(-c2noc3c2CCC[C@@]32CCCc3sc(N)c(C#N)c32)nc2c1CN(c1ncccn1)[C@]21CCOC1)[C@@H]1CCCN1C [II-7a] | 24 µg/mL (≈ 36 µM)
CCn1c(=O)n([C@@H]2CCCOC2)c2nc(-c3onc4c3CCC[C@@]43CCCc4sc(N)c(C#N)c43)nc(OC[C@@]34CCCN3C[C@H](F)C4)c21 [I-33] | 8 µg/mL (≈ 11.6 µM)
C[C@H](Oc1nc(-c2onc3c2CCC[C@@]32CCCc3sc(N)c(C#N)c32)nc2c1n(C)c(=O)n2[C@@H]1CCOC1)[C@@H]1CCCN1C [I-20] | > 154 µg/mL
Cc1cn([C@@H]2CCOC2)c2nc(-c3onc4c3CCC[C@@]43CCCc4sc(N)c(C#N)c43)nc(O[C@@H](C)[C@@H]3CCCN3C)c12 [I-41] | 32 µg/mL (≈ 52.1 µM)
C[C@H](Oc1nc(-c2onc3c2CCC[C@@]32CCCc3sc(N)c(C#N)c32)nc2c1[nH]c(=O)n2[C@@H]1CCCOC1)[C@@H]1CCCN1C [I-13] | > 131 µg/mL

— US20250019385A1, “SPIROCYCLIC ANNULATED 2-AMINO-3-CYANO THIOPHENES AND DERIVATIVES FOR THE TREATMENT OF CANCER” (Boehringer Ingelheim International GmbH, priority 2023, published 2025)
